Experimental data published in US8592367B2, “Nodule specific medicago peptides having antimicrobial activity and pharmaceutical compositions containing the same” (priority 2009, dated 2013).
Entries after “also recorded” stand apart in the source; their conditions may differ. Read-outs that look alike come from different tables or passages of the source.

What was measured:
[1] = test system: Aspergillus flavus; assay: Antifungal activity in 96-well microtiter plates; format: cell-based; parameters: key: +++: high sensitivity, no hyphal growth; ++: medium sensitivity; +: low sensitivity; −: no effect; conditions: 24 h
[2] = test system: Aspergillus niger; assay: Antifungal activity in 96-well microtiter plates; format: cell-based; parameters: key: +++: high sensitivity, no hyphal growth; ++: medium sensitivity; +: low sensitivity; −: no effect; conditions: 24 h
[3] = test system: Candida albicans; assay: Antifungal activity in 96-well microtiter plates; format: cell-based; parameters: key: +++: high sensitivity, no hyphal growth; ++: medium sensitivity; +: low sensitivity; −: no effect; conditions: 24 h
[4] = test system: Candida crusei; assay: Antifungal activity in 96-well microtiter plates; format: cell-based; parameters: key: +++: high sensitivity, no hyphal growth; ++: medium sensitivity; +: low sensitivity; −: no effect; conditions: 24 h
[5] = test system: Candida parapsilosis; assay: Antifungal activity in 96-well microtiter plates; format: cell-based; parameters: key: +++: high sensitivity, no hyphal growth; ++: medium sensitivity; +: low sensitivity; −: no effect; conditions: 24 h
[6] = test system: Rhizopus stolonifer var. stolonifer; assay: Antifungal activity in 96-well microtiter plates; format: cell-based; parameters: key: +++: high sensitivity, no hyphal growth; ++: medium sensitivity; +: low sensitivity; −: no effect; conditions: 24 h
[7] = test system: Fusarium graminearum; format: cell-based; parameters: key: +++: high sensitivity, no hyphal growth; ++: medium sensitivity; +: low sensitivity; −: no effect; conditions: 24 h
[8] = test system: Pseudomonas syringae pv tomato DC3000; assay: PI staining, broad spectrum activity; format: cell-based; conditions: 50 μg/ml
[9] = test system: Pseudomonas syringae pv tomato DC3000; assay: CFU determination, broad spectrum activity; format: cell-based; conditions: 50 μg/ml, Pseudomonas syringae pv tomato DC3000, untreated 10^7
[10] = test system: Xanthomonas 2880; assay: PI staining, broad spectrum activity; format: cell-based; conditions: 50 μg/ml
[11] = test system: Xanthomonas 2880; assay: CFU determination, broad spectrum activity; format: cell-based; conditions: 50 μg/ml, Xanthomonas 2880, untreated 10^7
[12] = test system: Clavibacter michigense; assay: PI staining, broad spectrum activity; format: cell-based; conditions: 50 μg/ml
[13] = test system: Clavibacter michigense; assay: CFU determination, broad spectrum activity; format: cell-based; conditions: 50 μg/ml, untreated 10^9
[14] = test system: Curtobacterium, flaccumfaciens; assay: PI staining, broad spectrum activity; format: cell-based; conditions: 50 μg/ml
[15] = test system: Curtobacterium, flaccumfaciens; assay: CFU determination, broad spectrum activity; format: cell-based; conditions: 50 μg/ml, untreated 10^9
[16] = test system: Bacillus subtilis; assay: PI staining, broad spectrum activity; format: cell-based; conditions: 50 μg/ml
[17] = test system: Bacillus subtilis; assay: CFU determination, broad spectrum activity; format: cell-based; conditions: 50 μg/ml, untreated 10^6
[18] = test system: Staphylococcus aureus; assay: PI staining, broad spectrum activity; format: cell-based; conditions: 50 μg/ml
[19] = test system: Staphylococcus aureus; assay: CFU determination, broad spectrum activity; format: cell-based; conditions: 50 μg/ml, untreated 10^6
[20] = test system: Sinorhizobium meliloti AK631; assay: PI staining of Sinorhizobium meliloti; conditions: 50 μg/ml; for PI staining (PI uptake): FIG. 2A; for PI: Sinorhizobium meliloti (AK631)
[21] = test system: Sinorhizobium meliloti AK631; assay: CFU determination of Sinorhizobium meliloti; conditions: for CFU % / CFU (colony/ml): 1 hr; for CFU determination (colony formation): 3 hours, 2-3×10^6 bacteria, FIG. 2B; for CFU: Sinorhizobium meliloti (AK631), untreated 10^7; for eradication of the bacteria: from the low dose of 20 μg/ml
[22] = test system: Pseudomonas aeruginosa; assay: PI staining, broad spectrum activity; format: cell-based; conditions: 50 μg/ml
[23] = test system: Pseudomonas aeruginosa; assay: CFU determination, broad spectrum activity; format: cell-based; conditions: 50 μg/ml, Pseudomonas aeruginosa, untreated 10^7

C[C@@H]1[C@H](O)[C@@H](C)/C=C/C=C/C=C/C=C/C=C/C=C/C=C/[C@H](O[C@@H]2O[C@H](C)[C@@H](O)[C@H](N)[C@@H]2O)C[C@@H]2O[C@](O)(C[C@@H](O)C[C@@H](O)[C@H](O)CC[C@@H](O)C[C@@H](O)CC(=O)O[C@H]1C)C[C@H](O)[C@H]2C(=O)O [AMB, Amfotericin B, reference compound]
Fungal (hyphal) growth, sensitivity ([1]; 125 μg/ml): +++ | Fungal (hyphal) growth, sensitivity ([2]; 125 μg/ml): +++ | Fungal (hyphal) growth, sensitivity ([3]; 125 μg/ml): +++ | Fungal (hyphal) growth, sensitivity ([4]; 125 μg/ml): +++ | Fungal (hyphal) growth, sensitivity ([5]; 125 μg/ml): +++ | Fungal (hyphal) growth, sensitivity ([6]; 125 μg/ml): +++ | Fungal (hyphal) growth, sensitivity ([7]; 125 μg/ml): ++

NCR035: cationic NCR peptide (SFLGTFISSCKRDKDCPKLYGANFRCRKGTCVPPI; Peptide derived from Medicago truncatula)
PI [8]: PI: 100% | CFU [9]: CFU: 10^7 | PI [10]: PI: 100% | CFU [11]: CFU: 10^2 | PI [12]: PI: 110% | CFU [13]: CFU: 10^4 | PI [14]: PI: 78% | CFU [15]: CFU: 10^5 | PI [16]: PI: 100% | CFU [17]: CFU: 10^3 | PI [18]: PI: 100% | CFU [19]: CFU: 10^6 | Fungal (hyphal) growth, sensitivity ([1]; 25 μg/ml): − | Fungal (hyphal) growth, sensitivity ([1]; 50 μg/ml): + | Fungal (hyphal) growth, sensitivity ([1]; 100 μg/ml): ++ | Fungal (hyphal) growth, sensitivity ([2]; 25 μg/ml): − | Fungal (hyphal) growth, sensitivity ([2]; 50 μg/ml): − | Fungal (hyphal) growth, sensitivity ([2]; 100 μg/ml): + | Fungal (hyphal) growth, sensitivity ([3]; 25 μg/ml): + | Fungal (hyphal) growth, sensitivity ([3]; 50 μg/ml): ++ | Fungal (hyphal) growth, sensitivity ([3]; 100 μg/ml): ++ | Fungal (hyphal) growth, sensitivity ([4]; 25 μg/ml): + | Fungal (hyphal) growth, sensitivity ([4]; 50 μg/ml): ++ | Fungal (hyphal) growth, sensitivity ([4]; 100 μg/ml): ++ | Fungal (hyphal) growth, sensitivity ([5]; 25 μg/ml): + | Fungal (hyphal) growth, sensitivity ([5]; 50 μg/ml): ++ | Fungal (hyphal) growth, sensitivity ([5]; 100 μg/ml): ++ | Fungal (hyphal) growth, sensitivity ([6]; 25 μg/ml): − | Fungal (hyphal) growth, sensitivity ([6]; 50 μg/ml): + | Fungal (hyphal) growth, sensitivity ([6]; 100 μg/ml): ++ | Fungal (hyphal) growth, sensitivity ([7]; 25 μg/ml): − | Fungal (hyphal) growth, sensitivity ([7]; 50 μg/ml): + | Fungal (hyphal) growth, sensitivity ([7]; 100 μg/ml): ++ | PI staining (PI uptake) ([20]; listed as NCR35): provoked PI uptake; also recorded: comparable to heat killed bacteria or bacteria treated with polymyxin B | PI [20]: PI: 90% | CFU % ([21]; 20 μg/ml): 0% | CFU (colony/ml) ([21]; 20 μg/ml): 21000 colony/ml | CFU % ([21]; 50 μg/ml): 0% | CFU (colony/ml) ([21]; 50 μg/ml): 0 colony/ml | CFU determination (colony formation) ([21]; 50 μg/ml): none formed colony | CFU ([21]; 50 μg/ml): CFU: 0 | eradication of the bacteria [21]: able to eradicate the bacteria in less than an hour

NCR055: cationic NCR peptide (VNDCIRIHCKDDFDCIENRLQVGCRLQREKPRCVNLVCRCLRR; Peptide derived from Medicago truncatula)
PI [22]: PI: 10% | CFU [23]: CFU: 10^5 | PI [8]: PI: 85% | CFU [9]: CFU: 0 | PI [10]: PI: 100% | CFU [11]: CFU: 10^4 | PI [12]: PI: 100% | CFU [13]: CFU: 0 | PI [14]: PI: 80% | CFU [15]: CFU: 0 | PI [16]: PI: 100% | CFU [17]: CFU: 0 | PI [18]: PI: 100% | Fungal (hyphal) growth, sensitivity ([1]; 50 μg/ml): + | Fungal (hyphal) growth, sensitivity ([1]; 100 μg/ml): ++ | Fungal (hyphal) growth, sensitivity ([2]; 50 μg/ml): ++ | Fungal (hyphal) growth, sensitivity ([2]; 100 μg/ml): ++ | Fungal (hyphal) growth, sensitivity ([3]; 50 μg/ml): +++ | Fungal (hyphal) growth, sensitivity ([3]; 100 μg/ml): +++ | Fungal (hyphal) growth, sensitivity ([4]; 50 μg/ml): +++ | Fungal (hyphal) growth, sensitivity ([4]; 100 μg/ml): +++ | Fungal (hyphal) growth, sensitivity ([5]; 50 μg/ml): +++ | Fungal (hyphal) growth, sensitivity ([5]; 100 μg/ml): +++ | Fungal (hyphal) growth, sensitivity ([6]; 50 μg/ml): ++ | Fungal (hyphal) growth, sensitivity ([6]; 100 μg/ml): +++ | Fungal (hyphal) growth, sensitivity ([7]; 50 μg/ml): − | Fungal (hyphal) growth, sensitivity ([7]; 100 μg/ml): ++ | PI staining (PI uptake) ([20]; listed as NCR55): provoked PI uptake; also recorded: comparable to heat killed bacteria or bacteria treated with polymyxin B | PI [20]: PI: 80% | CFU % ([21]; 20 μg/ml): 0% | CFU (colony/ml) ([21]; 20 μg/ml): 1800 colony/ml | CFU % ([21]; 50 μg/ml): 0% | CFU (colony/ml) ([21]; 50 μg/ml): 0 colony/ml | CFU determination (colony formation) ([21]; 50 μg/ml): none formed colony | CFU ([21]; 50 μg/ml): CFU: 0 | eradication of the bacteria [21]: able to eradicate the bacteria in less than an hour
